Source: PubChem BioAssay AID248 (DTP/NCI, 2004)
Inconclusive results and toxic doses are left out. No stated cut-off is given here; in the data, active means T/C of 150% or more; inactive means T/C below 125%.

Tested on: L1210 leukemia ip in BDF1 mice, survival T/C
Experiment: NCI In Vivo Anticancer Drug Screen. Data for tumor model L1210 Leukemia (intraperitoneal) in B6D2F1 (BDF1) mice
Conditions: endpoint: mean survival time, higher = longer survival
Procedure, shortened: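 Tumor was transplanted into mice, which were then dosed with test compound or vehicle alone. Survival was recorded for each group, and the treated figure was expressed relative to the control figure.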

[1] = dose: 100.0 mg/kg/injection, schedule: Q01DX001 (ip), vehicle: carboxymethylcellulose (CMC)
[2] = dose: 200.0 mg/kg/injection, schedule: Q01DX001 (ip), vehicle: carboxymethylcellulose (CMC)
[3] = dose: 400.0 mg/kg/injection, schedule: Q01DX001 (ip), vehicle: carboxymethylcellulose (CMC)
[4] = dose: 400.0 mg/kg/injection, schedule: Q01DX001 (ip), vehicle: saline
[5] = dose: 50.0 mg/kg/injection, schedule: Q01DX001 (ip), vehicle: carboxymethylcellulose (CMC)

Measured: T/C

CCOC(=O)C(Cc1ccccc1)C1=NC(C)(C)CC(C)O1 (centres undefined)
inactive: dose: 10.0 mg/kg/injection, schedule: Q01DX009 (ip), vehicle: alcohol 100 % of control | dose: 200.0 mg/kg/injection, schedule: Q01DX009 (ip), vehicle: alcohol 104 % of control | dose: 400.0 mg/kg/injection, schedule: Q01DX009 (ip), vehicle: alcohol 102 % of control

Nc1ccc2c(c1)[nH]c(=O)c1cc(Br)ccc12
inactive: [1] 104 % of control | [2] 100 % of control | [3] 102 % of control

O=C(C[n+]1cccc(C(=O)Nc2ccc(Cl)cc2)c1)Nc1ccccc1
inactive: dose: 100.0 mg/kg/injection, schedule: Q04DX003 (ip), vehicle: saline 92 % of control | dose: 200.0 mg/kg/injection, schedule: Q04DX003 (ip), vehicle: saline 101 % of control

COc1cc([N+](=O)[O-])c(N)c([N+](=O)[O-])c1
inactive: dose: 50.0 mg/kg/injection, schedule: Q01DX001 (ip), vehicle: saline 96 % of control | dose: 100.0 mg/kg/injection, schedule: Q01DX001 (ip), vehicle: saline 108 % of control | dose: 200.0 mg/kg/injection, schedule: Q01DX001 (ip), vehicle: saline 96 % of control | [4] 93 % of control

N#CCCC(C#N)(C#N)CCC#N
inactive: dose: 175.0 mg/kg/injection, schedule: Q01DX001 (ip), vehicle: saline 97 % of control | dose: 265.0 mg/kg/injection, schedule: Q01DX001 (ip), vehicle: saline 100 % of control | [4] 96 % of control | dose: 600.0 mg/kg/injection, schedule: Q01DX001 (ip), vehicle: saline 91 % of control

CCCCNC(=O)Oc1cccc(NC(=O)OC)c1
inactive: dose: 100.0 mg/kg/injection, schedule: Q01DX009 (ip), vehicle: saline with Tween-80 96 % of control | dose: 200.0 mg/kg/injection, schedule: Q01DX009 (ip), vehicle: saline with Tween-80 92 % of control | dose: 400.0 mg/kg/injection, schedule: Q01DX009 (ip), vehicle: saline with Tween-80 105 % of control

CCCCOC(=O)c1ccc(NC(=O)Nc2cc([N+](=O)[O-])ccc2F)cc1
inactive: dose: 100.0 mg/kg/injection, schedule: Q04DX002 (ip), vehicle: Klucel (hydroxypropylcellulose) (HPC) 93 % of control | dose: 200.0 mg/kg/injection, schedule: Q04DX002 (ip), vehicle: Klucel (hydroxypropylcellulose) (HPC) 104 % of control | dose: 400.0 mg/kg/injection, schedule: Q04DX002 (ip), vehicle: Klucel (hydroxypropylcellulose) (HPC) 93 % of control

C/C(=N\NC(N)=O)C1=C(O)C(C(C)C)NC1=O (centres undefined)
inactive: [5] 101 % of control | [1] 106 % of control | [2] 103 % of control | [3] 109 % of control

O=C(O)/C=C/c1cccc(Cl)c1
inactive: dose: 100.0 mg/kg/injection, schedule: Q01DX009 (ip), vehicle: gum acacia 113 % of control | dose: 200.0 mg/kg/injection, schedule: Q01DX009 (ip), vehicle: gum acacia 104 % of control | dose: 400.0 mg/kg/injection, schedule: Q01DX009 (ip), vehicle: gum acacia 100 % of control

C1CC2(C34CCC(CC3)C4)CCC1C2
inactive: [5] 105 % of control | [1] 96 % of control | [2] 105 % of control | [3] 88 % of control

CN=C(NN)Nc1ccccc1
inactive: dose: 87.5 mg/kg/injection, schedule: Q04DX003 (ip), vehicle: saline 96 % of control | dose: 175.0 mg/kg/injection, schedule: Q04DX003 (ip), vehicle: saline 104 % of control | dose: 350.0 mg/kg/injection, schedule: Q04DX003 (ip), vehicle: saline 93 % of control

CCOC(=O)CN1C(=O)NC(C)(c2ccc(Cl)cc2)C1=O (centres undefined)
inactive: dose: 100.0 mg/kg/injection, schedule: Q04DX003 (ip), vehicle: saline with Tween-80 106 % of control | dose: 200.0 mg/kg/injection, schedule: Q04DX003 (ip), vehicle: saline with Tween-80 98 % of control | dose: 400.0 mg/kg/injection, schedule: Q04DX003 (ip), vehicle: saline with Tween-80 96 % of control
